In one test the target is SARS-CoV-2 nsp12/7/8 (RTC) complex (Severe acute respiratory syndrome coronavirus 2, UniProt P0DTD1). The test is described as follows: biochemical. The format is biochemical.
Conditions: not given
Compound `C[C@H]1[C@H](C)CC[C@]2(C(=O)O)CC[C@]3(C)C(=CC[C@@H]4[C@@]5(C)C[C@@H](O)[C@H](O)C(C)(C)[C@@H]5CC[C@]43C)[C@H]12` [Corosolic acid, reference compound] returned an IC50 of more than 100 µM. For `CC(C)(O)/C=C/C(=O)[C@](C)(O)[C@H]1[C@H](O)C[C@@]2(C)[C@@H]3CC=C4[C@@H](C[C@H](O)C(=O)C4(C)C)[C@]3(C)C(=O)C[C@]12C` [Cucurbitacin D], the IC50 was more than 100 µM. Same read-out and setting: the result for `CC(=O)OC(C)(C)/C=C/C(=O)[C@](C)(O)[C@H]1[C@H](O)C[C@@]2(C)[C@@H]3CC=C4[C@@H](C=C(O)C(=O)C4(C)C)[C@]3(C)C(=O)C[C@]12C` [Cucurbitacin E] reads 47.2 ± 20.5 µM.

With `C[C@@H]1C(=O)O[C@H](C)[C@H]1C[C@@H](O)[C@](C)(O)[C@H]1CC[C@@]2(O)C3=CC(=O)[C@@H]4C[C@@H](O)[C@@H](O)C[C@]4(C)[C@H]3CC[C@]12C` [Cyasterone], the IC50 was more than 100 µM. `CC(=O)c1nn(CC(=O)N2C[C@H](F)C[C@H]2C(=O)Nc2cccc(Br)n2)c2ccc(-c3cnc(C)nc3)cc12` [Danicopan, reference compound] returned an IC50 of more than 100 µM. Compound `Cc1ccc(-n2nc(C(C)(C)C)cc2NC(=O)Nc2ccc(OCCN3CCOCC3)c3ccccc23)cc1` [Doramapimod, reference compound] showed an IC50 of more than 100 µM. `C[C@]12C=CC(=O)N[C@@H]1CC[C@@H]1[C@@H]2CC[C@]2(C)[C@@H](C(=O)Nc3cc(C(F)(F)F)ccc3C(F)(F)F)CC[C@@H]12` [Dutasteride, reference compound]: the IC50 was more than 100 µM.

`CC1(C)[C@@H](O)CC[C@]2(C)[C@H]3C(=O)C=C4[C@@H]5C[C@@](C)(C(=O)O)CC[C@]5(C)CC[C@@]4(C)[C@]3(C)CC[C@@H]12` [Enoxolone, reference compound] yielded an IC50 of 35.5 ± 4.61 µM. Compound `CC1=C(/C=C/C(C)=C/C=C/C(C)=C/C(=O)Nc2ccc(O)cc2)C(C)(C)CCC1` [Fenretinide, reference compound] gave an IC50 of more than 100 µM. With `CC(C)=CCC[C@](C)(O[C@@H]1O[C@H](CO)[C@@H](O)[C@H](O)[C@H]1O)[C@H]1CC[C@]2(C)[C@@H]1[C@H](O)C[C@@H]1[C@@]3(C)CC[C@H](O)C(C)(C)[C@@H]3[C@@H](O)C[C@]12C` [Ginsenoside F1], the IC50 is more than 100 µM.

The same test, now with this note: primer-extension PAGE assay, 150 nM RTC, 5% DMSO, 30 min preincubation at 37 °C; mean and SD of at least 3 independent experiments.
Regarding `CC[C@H](CC[C@@H](C)[C@H]1CC[C@H]2[C@@H]3CC=C4C[C@@H](O[C@@H]5O[C@H](CO)[C@@H](O)[C@H](O)[C@H]5O)CC[C@]4(C)[C@H]3CC[C@]12C)C(C)C` [Daucosterol, reference compound], the IC50 is more than 100 µM.

As to `C[C@@H]1CC[C@@]2(OC1)O[C@H]1C[C@H]3[C@@H]4CC=C5C[C@@H](O[C@@H]6O[C@H](CO)[C@@H](O)[C@H](O)[C@H]6O)CC[C@]5(C)[C@H]4CC[C@]3(C)[C@H]1[C@@H]2C` [Disogluside], the IC50 was more than 100 µM. In turn, `C[C@H](NC(=O)c1c(N)nn2cccnc12)c1cc2cccc(C#Cc3cnn(C)c3)c2c(=O)n1-c1ccccc1` [Eganelisib, reference compound] came in with an IC50 of more than 100 µM. On the same count and under the same terms, the result for `C[C@H]1CN(C2COC2)CCN1c1ccc(Nc2cc(-c3ccnc(N4CCn5c(cc6c5CC(C)(C)C6)C4=O)c3CO)cn(C)c2=O)nc1` [Fenebrutinib, reference compound] reads more than 100 µM.

Staying with this test, now noted: read-out: IC50: compound concentration required to inhibit by 50% the SARS-CoV-2 RTC enzymatic activity.
On to `CC(C)(O)[C@@H]1CC[C@](C)([C@H]2[C@@H](O)C[C@@]3(C)[C@@H]4C[C@H](O)[C@H]5C(C)(C)[C@@H](O)CC[C@@]56C[C@@]46CC[C@]23C)O1` [Cycloastragenol], for which the IC50 was more than 100 µM. On to `CC(C)(O)CC[C@H]1OC(C)(C)O[C@]1(C)[C@H]1CC[C@@]2(O)C3=CC(=O)[C@@H]4C[C@H]5OC(C)(C)O[C@H]5C[C@]4(C)[C@H]3CC[C@]12C` [Ecdysterone 2,3:20,22-diacetonide], for which the IC50 is more than 100 µM.

Values taken from paper PMC12519464, “Dual-Site Inhibition of SARS-CoV‑2 RNA-Dependent RNA Polymerase by Small Molecules Able to Block Viral Replication Identified through a Computer-Aided Drug Discovery Approach” (ACS Infectious Diseases, 2025).
